The source of these data is patent publication US11661427B2, “Tetrazole derivatives as TRPA1 inhibitors” (Boehringer Ingelheim International GmbH, priority 2020, dated 2023).

The nature of data set [1]: Assay C: Hepatocyte clearance. The format is in vitro ADME, human. The following applies: hepatocyte suspension, 5% species serum, 1 μM test compound, six hours. On the procedure:
Evaluation of Hepatocyte Clearance Assay C: Hepatocyte Clearance
The metabolic degradation of the test compound is assayed in a hepatocyte suspension. Hepatocytes (cryopreserved) are incubated in Dulbecco's modified eagle medium (supplemented with 3.5 μg glucagon/500 mL, 2.5 mg insulin/500 mL and 3.75 mg/500 mL hydrocortison) containing 5% species serum.
Following a 30 min preincubation in an incubator (37° C., 10% CO2) 5 μl of test compound solution (80 μM; from 2 mM in DMSO stock solution diluted 1:25 with medium) are added into 395 μl hepatocyte suspension (cell density in the range 0.25-5 Mio cells/mL depending on the species, typically 1 Mio cells/mL; final concentration of test compound 1 μM, final DMSO concentration 0.05%).
The cells are incubated for six hours (incubator, orbital shaker) and samples (25 μl) are taken at 0, 0.5, 1, 2, 4 and 6 hours. Samples are transferred into acetonitrile and pelleted by centrifugation (5 min). The supernatant is transferred to a new 96-deepwell plate, evaporated under nitrogen and resuspended.
Decline of parent compound is analyzed by HPLC-MS/MS
CLint is calculated as follows CL_[…]=Dose/AUC=(C0/CD)/(AUD+clast/k)×1000/60. C0: initial concentration in the incubation [μM], CD: cell density of vital cells [10e6 cells/mL], AUD: area under the data [μM×h], clast: concentration of last data point [μM], k: slope of the regression line for parent decline [h−1].
The calculated in vitro hepatic intrinsic clearance can be scaled up to the intrinsic in vivo hepatic Clearance and used to predict hepatic in vivo blood clearance (CL) by the use of a liver model (well stirred model).

A further data set deals with human TRPA1 ion channel (Homo sapiens (Human), UniProt O75762). Description: Assay A: TRPA1 assay (FLIPR calcium assay, AITC agonism, HEK293 cells over-expressing human TRPA1). The format is cell-based. Particulars: AITC 10 μM, FLIPRtetra, AUC after AITC addition, read-out: hTRPA1 IC50. On the procedure:
A human HEK293 cell line over-expressing the human TRPA1 ion channel (Perkin Elmer, Product No. AX-004-PCL) is used as a test system for compound efficacy and potency. Compound activity is determined by measuring the effect of compounds on intracellular calcium concentration induced by AITC (Allylisothiocyanat) agonism in a FLIPRtetra system (Molecular Devices).
Cells are grown in culture medium (MEM/EBSS medium with 10% FCS and 0.4 mg/ML Geneticin). […] For sub-culturing cells are detached from flasks by Versene. At the day before the assay, cells are detached, washed twice with medium (MEM/EBSS medium with 10% FCS) and 20000 cells in 20 μl/well are seeded to Poly D-Lysin biocoated 384-well plates (black, clear bottom, Cat. 356697) from Corning. Plates are incubated for 24 hours at 37° C./5% CO2 before use in the assay.
The test compounds are dissolved in 100% DMSO at a concentration of 10 mM and in a first step diluted in DMSO to a concentration of 5 mM, followed by serial dilution steps in 100% DMSO. Dilution factor and number of dilution steps may vary according to needs. Typically 8 different concentrations by 1:5 dilutions are prepared, further intermediate dilutions (1:20) of the substances are carried out with HBSS/HEPES buffer (1×HEPES, Cat. 14065 from Gibco, 20 mM HEPES, Cat. 83264 from SIGMA, 0.1% BSA Cat. 11926 from Invitrogen, pH 7.4
At the assay day cells are washed 3× with assay puffer, 20 μL buffer remaining in the wells after washing. 10 μL Ca6 kit (Cat. R8191 MolecularDevices) loading buffer in HBSS/HEPES is added to the cells and the plates are incubated with lid for 120 minutes at 37°/5% CO2. 10 μL of compound or controls in HBSS/HEPES buffer/5% DMSO from the intermediate dilution plate are carefully added to the wells. […] Finally 10 μL of the agonist AITC 50 μM dissolved in HBSS/HEPES buffer/0.05% DMSO (final concentration 10 μM) is added to the wells followed by an additional read on the FLIPRtetra device for 10 minutes. The area under the signal curve (AUC) after AITC addition is used for IC50/% inhibition calculations
Each assay microtiter plate contains wells with vehicle (1% DMSO) controls instead of compound as controls for AITC induced luminescence (100% CTL; high controls) and wells with vehicle controls without AITC as controls for non-specific changes in luminescence (0% CTL; low controls).
The analysis of the data is performed by the calculation of the area under signal curve of the individual wells. Based on this values the % value for the measurement of each substance concentration is calculated (AUC(sample)−AUC(low))*100/(AUC(high)−AUC(low)) using MegaLab software (in house development). The IC50 values are calculated from the % control values using MegaLab software. Calculation: [y=(a−d)/(1+(x/c)^B)+d], a=low value, d=high value; x=conc M; c=IC50 M; b=hill; y=% ctrl

Data set [2] in a line: Assay B: Microsomal clearance. Type of data set: in vitro ADME. Particulars: pooled liver microsomes, 1 μM test compound, 37° C.; Tables 5 and 6 of the same assay are headed human LM [% Qh]. The procedure: Evaluation of Microsomal Clearance Assay B: Microsomal Clearance:
The metabolic degradation of the test compound is assayed at 37° C. with pooled liver microsomes. The final incubation volume of 100 μl per time point contains TRIS buffer pH 7.6 at RT (0.1 M), magnesium chloride (5 mM), microsomal protein (1 mg/ml) and the test compound at a final concentration of 1 μM.
Following a short preincubation period at 37° C., the reactions are initiated by addition of beta-nicotinamide adenine dinucleotide phosphate, reduced form (NADPH, 1 mM) and terminated by transferring an aliquot into solvent after different time points (0, 5, 15, 30, 60 min). Additionally, the NADPH-independent degradation is monitored in incubations without NADPH, terminated at the last time point. The [%] remaining test compound after NADPH independent incubation is reflected by the parameter c(control) (metabolic stability). The quenched incubations are pelleted by centrifugation (10000 g, 5 min).
An aliquot of the supernatant is assayed by LC-MS/MS for the amount of parent compound. The half-life (t1/2 INVITRO) is determined by the slope of the semilogarithmic plot of the concentration-time profile.
For orientation: Microsomes from liver hold many membrane-bound enzymes, among them those of drug oxidation.

Some results are limits rather than exact numbers.

Chain of human TRPA1 ion channel (O75762 whole entry): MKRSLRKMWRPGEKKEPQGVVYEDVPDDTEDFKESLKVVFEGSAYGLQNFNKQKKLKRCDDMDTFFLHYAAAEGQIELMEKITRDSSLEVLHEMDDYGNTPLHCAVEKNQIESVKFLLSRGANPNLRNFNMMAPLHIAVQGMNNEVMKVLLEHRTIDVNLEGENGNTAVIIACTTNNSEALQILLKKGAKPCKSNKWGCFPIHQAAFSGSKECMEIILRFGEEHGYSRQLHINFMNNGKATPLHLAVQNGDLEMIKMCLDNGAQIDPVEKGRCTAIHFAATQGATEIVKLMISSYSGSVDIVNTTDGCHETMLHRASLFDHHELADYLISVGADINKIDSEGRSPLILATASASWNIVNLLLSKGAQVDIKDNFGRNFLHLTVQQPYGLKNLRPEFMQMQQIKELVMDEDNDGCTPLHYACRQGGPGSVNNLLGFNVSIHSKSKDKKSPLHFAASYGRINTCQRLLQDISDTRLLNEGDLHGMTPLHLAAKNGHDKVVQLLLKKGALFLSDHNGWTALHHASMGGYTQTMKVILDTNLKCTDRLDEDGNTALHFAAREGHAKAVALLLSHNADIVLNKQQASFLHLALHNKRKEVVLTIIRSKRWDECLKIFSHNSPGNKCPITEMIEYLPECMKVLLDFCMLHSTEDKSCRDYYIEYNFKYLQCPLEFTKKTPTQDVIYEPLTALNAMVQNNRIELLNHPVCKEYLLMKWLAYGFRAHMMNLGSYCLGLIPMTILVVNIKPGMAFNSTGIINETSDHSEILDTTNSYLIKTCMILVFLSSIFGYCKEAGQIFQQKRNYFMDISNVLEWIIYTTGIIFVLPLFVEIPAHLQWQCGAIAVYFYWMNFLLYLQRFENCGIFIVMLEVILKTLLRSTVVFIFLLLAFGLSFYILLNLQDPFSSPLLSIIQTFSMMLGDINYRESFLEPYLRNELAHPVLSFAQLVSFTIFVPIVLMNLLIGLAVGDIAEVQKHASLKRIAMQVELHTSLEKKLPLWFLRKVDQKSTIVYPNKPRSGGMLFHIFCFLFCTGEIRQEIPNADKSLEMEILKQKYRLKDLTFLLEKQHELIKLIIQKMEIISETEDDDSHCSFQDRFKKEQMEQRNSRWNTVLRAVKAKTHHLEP

Turning to `Cc1ccc([C@@H](O)Cn2nnc(Cn3cnc4oc(C)c(C(N)=O)c4c3=O)n2)cc1` [Example 1, 3-({2-[(2R)-2-hydroxy-2-(4-methylphenyl)ethyl]-2H-1,2,3,4-tetrazol-5-yl}methyl)-6-methyl-4-oxo-3H,4H-furo[2,3-d]pyrimidine-5-carboxamide], in data set [1], the “human Hepatocytes” value worked out at 4 % Qh. For the same compound, the IC50 (in general, the midpoint of a concentration-inhibition curve) on human TRPA1 ion channel is 0.024 µM. The Assay B result (column head not printed in Table 4) in data set [2] was below 23%.
On the same counts, the results for `Cc1c(C(N)=O)oc2ncn(Cc3nnn(C[C@H](O)c4cc5ccccc5s4)n3)c(=O)c12` [Example 2] are 23 % Qh, 0.01 µM and below 23%.
As to `Cc1c(C(N)=O)oc2ncn(Cc3nnn(C[C@H](O)c4ccc(Cl)s4)n3)c(=O)c12` [Example 3], the “human Hepatocytes” value in data set [1] came out at 5 % Qh. Moreover, at human TRPA1 ion channel, the IC50 came to 0.01 µM. This compound also gave an Assay B result (column head not printed in Table 4) in data set [2] below 23%.
With `Cc1oc2ncn(Cc3nnn(C[C@H](O)c4cc5ccc(F)cc5s4)n3)c(=O)c2c1C(N)=O` [Example 4], the “human Hepatocytes” value in data set [1] is 30 % Qh. The IC50 at human TRPA1 ion channel was 0.01 µM. The Assay B result (column head not printed in Table 4) in data set [2] was below 23%.
On the same counts, the results for `Cc1oc2ncn(Cc3nnn(C[C@H](O)c4cc5ccccc5s4)n3)c(=O)c2c1C(N)=O` [Example 5] are 23 % Qh, 0.011 µM and below 23%.
Take `Cc1c(C(N)=O)oc2ncn(Cc3nnn(C[C@H](O)c4cc5cc(Cl)ccc5o4)n3)c(=O)c12` [Example 6]: the “human Hepatocytes” value in data set [1] was found to be 24 % Qh. Further, the IC50 at human TRPA1 ion channel was found to be 0.013 µM. Further, the Assay B result (column head not printed in Table 4) in data set [2] is below 23%.
Consider `Cc1oc2ncn(Cc3nnn(C[C@H](O)c4ccc(Cl)s4)n3)c(=O)c2c1C(N)=O` [Example 7], for which the “human Hepatocytes” value in data set [1] is 15 % Qh. The half-inhibitory concentration (IC50) on human TRPA1 ion channel came out at 0.02 µM. In addition, the Assay B result (column head not printed in Table 4) in data set [2] was below 23%.
Take `Cc1ccc([C@@H](O)Cn2nnc(Cn3cnc4oc(C(N)=O)c(C)c4c3=O)n2)cc1` [Example 8]: in data set [1], the “human Hepatocytes” value was found to be 14 % Qh. In addition, at human TRPA1 ion channel, the half-maximal inhibitory concentration (IC50) was 0.021 µM. Besides, in data set [2], the Assay B result (column head not printed in Table 4) is below 23%.
In the case of `Cc1oc2ncn(Cc3nnn(C[C@H](O)c4ccc(Cl)cc4)n3)c(=O)c2c1C(N)=O` [Example 9], in data set [1], the “human Hepatocytes” value is listed as 16 % Qh. The IC50 on human TRPA1 ion channel came to 0.023 µM. The Assay B result (column head not printed in Table 4) in data set [2] is below 23%.
As to `Cc1c(C(N)=O)oc2ncn(Cc3nnn(C[C@H](O)c4ccc(Cl)cc4)n3)c(=O)c12` [Example 10], the “human Hepatocytes” value in data set [1] is on record as below 4 % Qh. On human TRPA1 ion channel, the concentration for half-maximal inhibition (IC50) worked out at 0.023 µM. In data set [2], this compound came in with an Assay B result (column head not printed in Table 4) below 23%.
On to `Cc1oc2ncn(Cc3nnn(C[C@H](O)c4cc5ccccc5o4)n3)c(=O)c2c1C(N)=O` [Example 11], for which the “human Hepatocytes” value in data set [1] is given as 8 % Qh. At human TRPA1 ion channel, the IC50 amounted to 0.026 µM. In addition, in data set [2], the Assay B result (column head not printed in Table 4) is below 23%.
For `Cc1oc2ncn(Cc3nnn(C[C@H](O)c4ccc(Br)cc4)n3)c(=O)c2c1C(N)=O` [Example 12], the “human Hepatocytes” value in data set [1] was 16 % Qh. In addition, the IC50 on human TRPA1 ion channel was found to be 0.029 µM. The Assay B result (column head not printed in Table 4) in data set [2] was below 23%.
On the same counts, the results for `Cc1oc2ncn(Cc3nnn(C[C@H](O)c4cc5cccc(F)c5o4)n3)c(=O)c2c1C(N)=O` [Example 13] are 22 % Qh, 0.049 µM and 26%.
On the same counts, the results for `Cc1oc2ncn(Cc3nnn(C[C@H](O)c4cc5cc(Cl)ccc5o4)n3)c(=O)c2c1C(N)=O` [Example 14] are 42 % Qh, 0.012 µM and 42%.
The like results for `Cc1oc2ncn(Cc3nnn(C[C@H](O)c4cc5cc(F)ccc5o4)n3)c(=O)c2c1C(N)=O` [Example 15] were, in that order, 21 % Qh, 0.018 µM and below 23%.
